Assay results as given in patent US6900216B2, “Dihydroimidazo[2,1-b]thiazole and dihydro-5h-thiazolo[3,2-A]pyrimidines as antidepressant agents” (Knoll GmbH, priority 2000, dated 2005).

Legend:
5-HT reuptake sites = molecular target: T1, 5-HT reuptake sites (Rattus norvegicus, UniProt P31652); assay: 5-HT uptake: displacement of [3H]citalopram from 5-HT reuptake sites, rat frontal cortical membranes; assay type: binding; conditions: for inhibition at 1 µM: 10^−6 M test compound, single determination, [3H]citalopram; for Ki: [3H]citalopram 1.3 nM, rat frontal cortical membranes, fit to data from three experiments
T1 construct: Frontal cortical tissue from the brains of male Charles River rats; from tissue; host or cells: rat frontal cortical membranes
Experimental: Frontal cortical tissue from the brains of male Charles River rats weighing 150-250 g was homogenised in ice-cold 50 mM Tris-HCl, pH 7.4 (when measured at 25° C.) containing 120 mM sodium chloride and 5 mM potassium chloride (Tris buffer; 1:30 w/v) and centrifuged at 40,000 g for 10 minutes. The supernatant was discarded and the pellet rehomogenised in Tris buffer, 1:60 w/v, and centrifuged at 40,000 g for 10 minutes. This step was repeated a further time. The final pellet was resuspended in 50 mM Tris-HCl, pH 7.4 containing 120 mM sodium chloride and 5 mM potassium chloride (equivalent to 3.125 mg wet weight of tissue/ml) and used immediately in the binding assay. All centrifugations were performed at 4° C.
Membranes (400 μl; equivalent to 1.25 mg wet weight of tissue/tube) were incubated with 50 μl [^3H]citalopram at a single concentration of 1.3 nM and 50 μl of distilled water (total binding) or 50 μl of test compound (at a single concentration of 10^−6 M or at 10 concentrations ranging from 10^−11-10^−3 M) or 50 μl of paroxetine (0.5 μM; non-specific binding) for 1 h at 27° C. Membrane bound radioactivity was recovered by filtration under vacuum through Skatron 11734 filters presoaked in 0.5% PEI using a Skatron Cell Harvester. Filters were then washed in ice-cold 50 mM Tris-HCl buffer, pH 7.4 (at 25° C., wash setting 9,9,0). The scored filter paper discs were punched out into vials, scintillation fluid added and radioactivity determined by liquid scintillation counting.
(§1) For each of these tests measuring the ability of compounds of Formula I to displace standard ligands from 5-HT1A receptors and 5-hydroxytryptamine (5-HT) and noradrenaline (NA) reuptake sites and muscarinic receptors in vitro, the percentage displacement of specific binding of tritiated ligand by 10^−6 M test compound was calculated in the following way.
(§2) Firstly, specific binding of tritiated ligand in the absence (A) and presence (B) of test compound was determined:
(§3) In the absence of compound: A(dpm)=Total binding (dpm)−Non-specific binding (dpm) In the presence of compound (10^−6 M): B(dpm)=Binding at 10^−6M (dpm)−Non-specific binding (dpm)
(§4) The specific binding of tritiated ligand in the presence (B) of compound was then converted to a percentage of specific binding of tritiated ligand in the absence (A) of compound: % Specific binding at 10^−6 M=B(dpm)/A(dpm)×100
(§5) The percentage displacement of specific binding of tritiated ligand by the test compound (10^−6 M) was then obtained by subtraction of the percentage specific binding in the presence of compound from the percentage specific binding in the absence of compound, which is taken as the maximum binding and so equals 100%:
(§6) % Displacement at 10^−6 M=100−% Specific binding at 10^−6 M.
(§7) In some cases, displacement curves were then produced for compounds which displaced ≧50% of specific binding of the tritiated ligand at 10^−6 M using a range of concentrations of the compound. The Ki was then calculated by simultaneous fitting using equations derived from the Feldman equations by robust non-linear regression to data from three experiments simultaneously (De Lean et al., 1978; Munson and Rodbard, 1980; Feldman, 1992). Munson P J and Rodbard D. Ligand: a versatile computerised approach for characterisation of ligand binding systems. Anal Biochem 1980; 107: 220. Feldman HA. Mathematical theory of complex ligand binding systems at equilibrium: some methods for parameter fitting. Anal Biochem 1992: 48, 317. De Lean A, Munson P J and Rodbard D. Simultaneous analysis of families of sigmoidal curves: application to bioassay, radioligand assay, and physiological dose-response curves. Am J Physiol 1978: 235 (2), E97-E102.
The results obtained in the above tests for 5-HT1A binding and 5-HT and NA uptake and muscarinic binding for the final products of Examples 1-39 hereinafter are given in Table 1 below. Kis are in nM. % Figures are for % displacement at 10^−6 M for a single determination.

muscarinic receptors = assay: Muscarinic binding: displacement of [3H]N-methylscopolamine, rat frontal cortical membranes; conditions: for Muscarinic % displacement at 10^−6 M: 10^−6 M test compound, single determination, [3H]N-methylscopolamine; for Ki: [3H]N-methylscopolamine 0.15 nM, rat frontal cortical membranes
Experimental: Frontal cortical tissue from the brains of male Charles River rats weighing 150-250 g was homogenised in ice-cold 20 mM HEPES buffer, pH 7.5 (measured at 25° C.) containing 100 mM sodium chloride and 10 mM magnesium chloride (1:10 w/v) using a Polytron PT3100 (speed setting 21,700 rpm, 3×5 seconds) and centrifuged at 49,500 g for 30 minutes at 4° C. The supernatant was discarded and the pellet rehomogenised in 20 mM HEPES buffer, pH 7.5 containing 100 mM sodium chloride and 10 mM magnesium chloride (equivalent to 12.5 mg wet weight of tissue/ml). Membranes were stored at −80° C. until required.
Membranes were thawed, diluted 1:10 in ice-cold 20 mM HEPES buffer, pH 7.5 containing 100 mM sodium chloride and 10 mM magnesium chloride and homogenised using a Polytron PT3100 as above. Diluted membranes (200 μl; equivalent to 0.25 mg wet weight of tissue/tube) were incubated with 200 μl of 20 mM HEPES buffer, pH 7.5 containing 100 mM sodium chloride and 10 mM magnesium chloride and 50 μl [^3H]N-methylscopolamine at a single concentration of 0.15 nM and 50 μl distilled water (total binding) or 50 μl test compound (at a single concentration of 10^−6 M or at 10 concentrations ranging from 10^−11-10^−3 M) or 50 μl atropine sulphate (1 μM; non-specific binding) for 30 min at 30° C. Membrane bound radioactivity was recovered by filtration under vacuum through Skatron 11734 filters using a Skatron cell harvester. Filters were rapidly washed with ice-cold 20 mM HEPES buffer, pH 7.5 (wash 1,2 at setting 5,5). The scored filter paper discs were punched out into vials, scintillation fluid added and radioactivity determined by liquid scintillation counting.
as §1, §2, §3, §4, §5, §6
as §7, with “E97-E102. […]” for “E97-E102.”

T1 sequence (P31652 whole entry): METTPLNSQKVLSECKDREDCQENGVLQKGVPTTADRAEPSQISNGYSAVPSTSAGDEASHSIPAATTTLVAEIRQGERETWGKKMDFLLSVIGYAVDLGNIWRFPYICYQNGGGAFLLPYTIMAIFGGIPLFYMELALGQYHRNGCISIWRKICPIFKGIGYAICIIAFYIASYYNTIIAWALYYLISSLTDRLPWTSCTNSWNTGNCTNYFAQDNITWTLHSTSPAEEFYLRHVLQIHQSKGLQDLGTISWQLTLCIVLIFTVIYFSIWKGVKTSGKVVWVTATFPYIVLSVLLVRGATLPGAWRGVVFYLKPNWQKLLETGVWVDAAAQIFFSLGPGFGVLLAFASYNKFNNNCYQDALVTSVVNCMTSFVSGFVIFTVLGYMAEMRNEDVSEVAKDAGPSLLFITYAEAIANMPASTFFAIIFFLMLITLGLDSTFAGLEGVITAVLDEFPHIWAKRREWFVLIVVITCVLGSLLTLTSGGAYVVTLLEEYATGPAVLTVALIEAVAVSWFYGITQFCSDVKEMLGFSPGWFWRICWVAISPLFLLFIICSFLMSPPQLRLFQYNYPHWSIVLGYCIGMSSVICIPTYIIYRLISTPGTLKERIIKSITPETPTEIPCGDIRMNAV

Compound: Cc1cccc2sc(C3=CSC4=NCCN34)cc12.Cl [Example 14, 3-(4-methylbenzo[b]thiophen-2-yl)-5,6-dihydroimidazo[2,1-b]thiazole hydrochloride]
- inhibition at 1 µM (5-HT reuptake sites): 96%
- melting point: 238 to 245 °C
- Muscarinic % displacement at 10^−6 M (muscarinic receptors): 9%

Compound: CSC1=C(c2ccc3sccc3c2)N2CCN=C2S1 [Example 30, 3-(benzo[b]thiophen-5-yl)-2-(methylthio)-5,6-dihydroimidazo[2,1-b]thiazole]
- inhibition at 1 µM (5-HT reuptake sites): 95%
- Muscarinic % displacement at 10^−6 M (muscarinic receptors): 12%

Compound: Br.c1cc(C2=C(C3CC3)SC3=NCCN32)c2ccsc2c1 [Example 34, 3-(benzo[b]thiophen-4-yl)-2-cyclopropyl-5,6-dihydroimidazo[2,1-b]thiazole hydrobromide]
- Ki (5-HT reuptake sites): 53 nM
- melting point: 213 to 214 °C
- Ki (muscarinic receptors): 76 nM

Compound: CC1=C(c2cccc3sccc23)N2CCN=C2S1.Cl [Example 9, 3-(benzo[b]thiophen-4-yl)-2-methyl-5,6-dihydroimidazo[2,1-b]thiazole hydrochloride]
- Ki (5-HT reuptake sites): 387 nM
- Muscarinic % displacement at 10^−6 M (muscarinic receptors): 13%

Compound: Br.CC1=C(c2ccc(F)c3sccc23)N2CCN=C2S1 [Example 38, 3-(7-fluorobenzo[b]thiophen-4-yl)-2-methyl-5,6-dihydroimidazo[2,1-b]thiazole hydrobromide]
- Ki (5-HT reuptake sites): 61 nM
- melting point: 265 to 267 °C
- Muscarinic % displacement at 10^−6 M (muscarinic receptors): 12%

Compound: C=CC1=C(c2cccc3sccc23)N2CCN=C2S1.Cl [Example 39, 3-(benzo[b]thiophen-4-yl)-2-vinyl-5,6-dihydroimidazo[2,1-b]thiazole hydrochloride]
- inhibition at 1 µM (5-HT reuptake sites): 70%
- melting point: 195 to 197 °C

Compound: Br.CC1=C(c2cc3c(C)cccc3s2)N2CCN=C2S1 [Example 16, 2-methyl-3-(4-methylbenzo[b]thiophen-2-yl)-5,6-dihydroimidazo[2,1-b]thiazole hydrobromide]
- inhibition at 1 µM (5-HT reuptake sites): 93%
- melting point: 201 to 204 °C
- Muscarinic % displacement at 10^−6 M (muscarinic receptors): 0%

Compound: Br.CC1=C(c2cc3ccccc3s2)N2CCN=C2S1 [Example 6, 3-(benzo[b]thiophen-2-yl)-2-methyl-5,6-dihydroimidazo[2,1-b]thiazole hydrobromide]
- Ki (5-HT reuptake sites): 44.4 nM
- melting point: 257 to 259 °C (dec.)
- Muscarinic % displacement at 10^−6 M (muscarinic receptors): −2%

Compound: CCC1=C(c2cccc3sccc23)N2CCN=C2S1.O=C(O)/C=C/C(=O)O [Example 25, 3-(benzo[b]thiophen-4-yl)-2-ethyl-5,6-dihydroimidazo[2,1-b]thiazole fumarate]
- Ki (5-HT reuptake sites): 169 nM
- melting point: 171 to 173 °C
- Ki (muscarinic receptors; fumarate): 249 nM

Compound: CC(C)C1=C(c2ccc3sccc3c2)N2CCN=C2S1 [Example 29, 3-(benzo[b]thiophen-5-yl)-2-(1-methylethyl)-5,6-dihydroimidazo[2,1-b]-thiazole]
- Ki (5-HT reuptake sites): 4.1 nM
- Ki (muscarinic receptors): 798 nM

Compound: Br.CC1=C(c2cc3c(Cl)c(Cl)ccc3s2)N2CCN=C2S1 [Example 24, 3-(4,5-dichlorobenzo[b]thiophen-2-yl)-2-methyl-5,6-dihydroimidazo[2,1-b]-thiazole hydrobromide]
- inhibition at 1 µM (5-HT reuptake sites): 97%
- melting point: 244 to 246 °C
- Muscarinic % displacement at 10^−6 M (muscarinic receptors): −10%

Compound: Br.CC1=C(c2cc3cccc(Cl)c3s2)N2CCN=C2S1 [Example 20, 3-(7-chlorobenzo[b]thiophen-2-yl)-2-methyl-5,6-dihydroimidazo[2,1-b]thiazole hydrobromide]
- inhibition at 1 µM (5-HT reuptake sites): 73%
- melting point: 294 to 295 °C
- Muscarinic % displacement at 10^−6 M (muscarinic receptors): 16%

Compound: Br.CCC1=C(c2cc3c(Cl)cccc3s2)N2CCN=C2S1 [Example 18, 3-(4-chlorobenzo[b]thiophen-2-yl)-2-ethyl-5,6-dihydroimidazo[2,1-b]thiazole hydrobromide]
- inhibition at 1 µM (5-HT reuptake sites): 96%
- melting point: 187 to 189 °C
- Muscarinic % displacement at 10^−6 M (muscarinic receptors): 12%

Compound: Br.CCC1=C(c2cccc3sccc23)N2CCN=C2S1 [Example 13, 3-(benzo[b]thiophen-4-yl)-2-ethyl-5,6-dihydroimidazo[2,1-b]thiazole hydrobromide]
- Ki (5-HT reuptake sites): 84 nM
- melting point: 144 to 146 °C
- Ki (muscarinic receptors): 371 nM

Compound: CC(C)C1=C(c2cccc3sccc23)N2CCN=C2S1.O=C(O)/C=C/C(=O)O [Example 35, 3-(benzo[b]thiophen-4-yl)-2-(1-methylethyl)-5,6-dihydroimidazo[2,1-b]thiazole fumarate]
- Ki (5-HT reuptake sites): 83 nM
- melting point: 175 to 178 °C
- Ki (muscarinic receptors): 492 nM

Compound: OCC1=C(c2ccc3sccc3c2)N2CCN=C2S1 [Example 28, [3-(benzo[b]thiophen-5-yl)-5,6-dihydroimidazo[2,1-b]-thiazol-2-yl]methanol]
- Ki (5-HT reuptake sites): 148 nM
- melting point: 149 to 150 °C
- Muscarinic % displacement at 10^−6 M (muscarinic receptors): −8%

Compound: Br.CC1=C(c2cccc3sccc23)N2CCN=C2S1 [Example 8, 3-(benzo[b]thiophen-4-yl)-2-methyl-5,6-dihydroimidazo[2,1-b]thiazole hydrobromide]
- Ki (5-HT reuptake sites): 275 nM
- Muscarinic % displacement at 10^−6 M (muscarinic receptors): 0%

Compound: Br.CC1(c2cc3cc(F)ccc3s2)CSC2=NCCN21 (centres unmarked) [Example 27, 3-(5-fluorobenzo[b]thiophen-2-yl)-3-methyl-5,6-dihydroimidazo[2,1-b]thiazole hydrobromide]
- inhibition at 1 µM (5-HT reuptake sites): 85%
- Muscarinic % displacement at 10^−6 M (muscarinic receptors): −1%

Compound: Br.Oc1cccc2sc(C3=CSC4=NCCN34)cc12 [Example 12, 2-(5,6-dihydroimidazo[2,1-b]thiazol-3-yl)benzo[b]thiophen-4-ol hydrobromide]
- Ki (5-HT reuptake sites): 16 nM
- Muscarinic % displacement at 10^−6 M (muscarinic receptors): 22%
